Assay: solubility of L-tert-leucine in aqueous solutions
Assay type: physicochemical
Settings: 10° C.

## CC(C)(C)[C@H](N)C(=O)O [L-tert-leucine]
1N aqueous hydrochloric acid solution
  solubility in 1N aqueous hydrochloric acid solution: 20.4 wt %
water
  solubility in water: 12.7 wt %
